From article PMC8389922, “First-in-Class Cyclic Temporin L Analogue: Design, Synthesis, and Antimicrobial Assessment” (Journal of Medicinal Chemistry, 2021)
≈ marks a conversion by molar mass, not a printed value. Square brackets hold non-standard residues; d marks the D form. Peptide text beside a SMILES is read from it.

Experiments:
P. aeruginosa ATCC 27853 = format: cell-based, Pseudomonas aeruginosa
Protocol: (§1) The antimicrobial activity of peptides 9–26 was assessed against a range of reference bacterial strains such as S. aureus ATCC 25923, Staphylococcus epidermidis ATCC 12228, Bacillus megaterium Bm11, E. coli ATCC 25922, P. aeruginosa ATCC 27853, and A. baumannii ATCC 19606 by the broth microdilution assay to determine the minimal growth inhibitory concentration (MIC, Table 1).[59] First, we evaluated the effects produced by the lactam bridge between Lys and Glu residues placed at different positions along the peptide sequence of reference 9. […] When the i,i+7 cyclization strategy was applied (20–23), a dramatic decrease of bacterial inhibition activity was observed. Specifically, the peptides 20, 22, and 23 only affected the microbial growth of the Gram-positive B. megaterium Bm11, at 12.5 μM. […] Peptide 25, which differs from 9 by the presence of an olefin bridge rather than lactam one, dramatically lost the activity (MIC > 100 μM) vs both Gram-positive and Gram-negative strains.
(§2) The determination of MICs was conducted as previously reported.[61] Aliquots of 50 μL of bacterial culture appropriately diluted were added to each well of a 96-well plate to reach a final cell density of 1 × 10^6 CFU/mL and a final peptide concentration ranging from 100 to 0.78 μM (final volume 100 μL).

[1] = tested on: preformed biofilm of S. aureus ATCC 25923; conditions: ATCC 25923, 20 h
Protocol: (§3) Biofilm viability was determined as indicated in the Materials and General Procedures section and expressed as a percentage compared to that of untreated samples (100%). Values are the mean of at least three replicates ± SEM. Data are considered to be statistically significant as follows: *p < 0.05; ***p < 0.001; ****p < 0.0001. Biofilm eradication concentration 90, BEC90, was defined as the concentration able to reduce at least 90% of biofilm cells. TEXT PRINTED IN THE PICTURE: 9: S. aureus ATCC 25923: BEC90 = 25 μM; A. baumannii ATCC 19606: BEC90 > 100 μM | 12: S. aureus ATCC 25923: BEC90 = 12.5 μM; A. baumannii ATCC 19606: BEC90 = 25 μM
(§4) Preformed biofilms of S. aureus ATCC 25923 and A. baumannii ATCC 19606 were obtained as previously reported.[77] Microbial cultures were grown in Luria-Bertani broth (LB) at 37 °C to an optical density (OD) of 0.8 (λ = 590 nm) and then diluted in LB to a cell density of 1 × 10^6 colony-forming units (CFUs)/mL. Aliquots of 100 μL were dispensed into the wells of a 96-well plate, which was incubated for 20 h at 37 °C to allow biofilm formation. The medium containing planktonic cells was then aspirated from the wells and washed twice with 150 μL of phosphate-buffered saline (PBS) to remove any nonadherent cells. […] After treatment, each well was rinsed twice with PBS, as previously described. Then, 150 μL of MTT solution (0.5 mg/mL) were added to each well to evaluate biofilm cell viability. The plates were incubated at 37 °C for 4 h in the dark, and the reaction was stopped by adding sodium dodecyl sulfate (SDS) (at a final concentration of 5% v/v). The absorbance of each well was recorded at 570 nm using a microplate reader (Infinite M200; Tecan, Salzburg, Austria), and the percentage of biofilm cells viability was calculated with respect to the untreated samples (100%).

[2] = tested on: preformed biofilm of A. baumannii ATCC 19606; conditions: ATCC 19606, 20 h
Protocol: as §3, §4

B. megaterium Bm11 = format: cell-based, Bacillus megaterium
Protocol: as §1, §2

A. baumannii ATCC 19606 = format: cell-based, Acinetobacter baumannii
Protocol: as §1, §2

[3] = 90% fresh human serum (male AB plasma), 37 ± 1 °C, peptide 0.2 mM, MeCN precipitation, RP-UHPLC peak area at 220 nm, triplicate
Protocol: (§5) Peptides were incubated with 90% fresh human serum at 37 ± 1 °C within 12 h.[69] The percentage of intact peptide was monitored by calculating the peak area of the chromatogram from RP-HPLC analysis.
(§6) The peptide was incubated in a 1.5 mL eppendorf tube with human serum at a final concentration of 0.2 mM, and the mixture was incubated at 37 ± 1 °C for different periods (0.25, 0.75, 1.5, 2, 3, 4, 6, 7, 8, and 12 h). After the incubation period, an aliquot of reaction solution was taken and added MeCN (double volume respect to the aliquot) for the precipitation of serum proteins present in human serum. The produced cloudy solution was cooled (4 °C) for 15 min and then centrifuged at 13 000 rpm for 10 min to remove the serum protein as pellet. Then, the supernatant was analyzed by RP-UHPLC using a linear elution gradient from 10 to 90% MeCN (0.1% TFA) in water (0.1% TFA) over 20 min. A flow rate of 1 mL/min was employed, and the absorbance of the eluting peaks was detected at 220 nm. The proteolytic stability assay was repeated in triplicate.

[4] = tested on: S. aureus ATCC 43300, a methicillin-resistant strain (MRSA); format: cell-based, Staphylococcus aureus
Protocol: Thus, 12 was further tested against S. aureus ATCC 43300, a methicillin-resistant strain (MRSA), and compared with the linear precursor 9. […] No growth was observed after 24 h. Peptide 9 was bactericidal as well, by killing MRSA within 10 min, but at a higher concentration (25 μM).
The bacterial strains used in the antimicrobial assays were the Gram-negative E. coli ATCC 25922, P. aeruginosa ATCC 27853, A. baumannii ATCC 19606, the Gram-positive S. aureus ATCC 25923, S. epidermidis ATCC 12228, and B. megaterium Bm11. Methicillin-resistant S. aureus (MRSA) ATCC 43300 was obtained from Culture Collection Center of School of Basic Medical Sciences of Lanzhou University (China).
as §2

circular dichroism = conditions: water; pH ns; 25 °C; 50 uM
E. coli ATCC 25922 = format: cell-based, Escherichia coli
Protocol: as §1, §2

S. aureus ATCC 25923 = format: cell-based, Staphylococcus aureus
Protocol: as §1, §2

[5] = tested on: S. epidermidis ATCC 12228; format: cell-based, Staphylococcus epidermidis
Protocol: as §1, §2

in vitro = conditions: male, human, 90% fresh human serum
Protocol: as §5, §6

FtsZ protein = conditions: E. coli divisome; cited from earlier work
Description: Temporins are AMPs and belong to the group of host defense peptides (HDP), originally isolated from the amphibian skin secretions of the […] Rana temporaria.[29] Their sequences are composed of 10–14 amino acids, amidated at the C-terminus. In hydrophobic environments, temporins fold into an amphipathic α-helix that, along with their cationic nature at physiological pH (from +2 to +3), is accountable for their biological behavior.

Row | Compound | MIC P. aeruginosa ATCC 27853 (P. aeruginosa ATCC 27853) | Biofilm Eradication Concentration 90 (BEC90) S. aureus ATCC 25923 [1] | Biofilm Eradication Concentration 90 (BEC90) A. baumannii ATCC 19606 [2] | MIC B. megaterium Bm11 (B. megaterium Bm11) | MIC A. baumannii ATCC 19606 (A. baumannii ATCC 19606) | time to complete degradation in human serum [3] | MIC S. aureus ATCC 43300 (MRSA) [4] | helicity (circular dichroism) | MIC E. coli ATCC 25922 (E. coli ATCC 25922) | MIC S. aureus ATCC 25923 (S. aureus ATCC 25923) | MIC S. epidermidis ATCC 12228 [5] | metabolised at 0.75 h, 0.2 mM (in vitro) | Kd (FtsZ protein)
1 | CC[C@H](C)[C@H](NC(=O)[C@H](CCCNC(=N)N)NC(=O)CNC(=O)[C@@H](CC(C)C)NC(=O)[C@H](Cc1ccccc1)NC(=O)[C@H](CCCCN)NC(=O)[C@H](CO)NC(=O)[C@H](Cc1ccccc1)NC(=O)[C@H](Cc1c[nH]c2ccccc12)NC(=O)[C@@H]1CCCN1C(=O)[C@@H](NC(=O)[C@@H](N)Cc1ccccc1)C(C)C)C(=O)N[C@@H](CC(C)C)C(N)=O [compound 9, [Pro^3,DLeu^9]TL, reference compound] (H-FVPWFSKF[dL]GRIL-NH2) | 50 µM (≈ 80.5 µg/mL) | 25 µM | > 100 µM | 1.56 µM (≈ 2.51 µg/mL) | 6.25 µM (≈ 10.1 µg/mL) | ≤ 6 h | 25 µM (≈ 40.2 µg/mL) | 3% | 12.5 µM (≈ 20.1 µg/mL) | 6.25 µM (≈ 10.1 µg/mL) | 6.25 µM (≈ 10.1 µg/mL) | ~40% | –
2 | FVQWFSKFLGRIL [compound 7, Temporin L] | – | – | – | – | – | – | – | – | – | – | – | – | 17.4 ± 0.8 nM
